Here are results for 2 molecules from publication PMC8101618, “Comparable Initial Engagement of Intracellular Signaling Pathways by Parathyroid Hormone Receptor Ligands Teriparatide, Abaloparatide, and Long‐Acting PTH” (JBMR Plus, 2021).

For one assay, the system named is SIK. Particulars: cultured osteocytes and in vivo; cited from earlier work. The source says:
Although it is well‐established that PTH‐mediated increases in bone formation require actions in osteocytes,^( ^19 , ^23 ^) the signaling events downstream of the PTH1R in osteocytes have remained elusive. We recently described a new signaling pathway that relays information from the PTH1R to the nucleus in osteocytes.^( ^24 ^) A crucial step in this cascade involves cyclic AMP (cAMP)‐mediated inhibition of salt inducible kinase 2 (SIK2). Importantly, PTH1R‐induced SIK2 phosphorylation/inactivation occurs rapidly (within 1 min of receptor engagement by hPTH (1‐34)) and then diminishes.^( ^24 ^ ...

For a further assay, the system named is HDAC4 S246, HDAC5 S259. In words: HDAC4/5 phosphorylation immunoblotting in Ocy454 cells. The class given is cell-based, murine. Particulars: 10nM, 1 hour (Supplementary Fig. S1). The procedure:
For immunoblotting, cells were prepared as described.^( ^37 ^) Whole cell lysates were prepared using TNT (Tris‐NaCl‐Tween buffer, 20mM Tris‐HCl pH 8, 200mM NaCl, 0.5% Triton X‐100 containing protease inhibitor [PI], 1mM NaF, 1mM dithiothreitol [DTT], 1mM vanadate). Adherent cells were washed with ice cold PBS, then scraped into TNT buffer on ice. Material was then transferred into Eppendorf tubes kept on ice, vortexed at top speed for 30 s, then centrifuged at 14,000g for 6 min at 4°C. For immunoblotting, lysates or immunoprecipitates were separated by SDS‐PAGE and proteins were transferred to nitrocellulose. […] The next day, membranes were washed, incubated with appropriate horseradish peroxidase (HRP)‐coupled secondary antibodies, and signals were detected with ECL Western Blotting Substrate (Pierce, Rockford, IL, USA), ECL Plus Western Blotting Substrate (Pierce), or SuperSignal West Femto Maximum Sensitivity Substrate (Thermo Scientific, Waltham, MA, USA). […] Quantification was performed using ImageJ.
In cells, SIKs are constitutively active kinases due to upstream LKB1 activation loop phosphorylation,^( ^45 ^) and therefore constitutively phosphorylate their substrates. […] We assessed the effects of different PTH ligands on class IIa HDAC and CRTC phosphorylation at well‐documented SIK phosphorylation sites: HDAC4 S246, HDAC5 S259, and CRTC2 S275. […]

In assay [1] the test system is human PTH1R-pHluorin2-GFP. In words: internalization using GFP^pHs fluorescence (GPG-10 cells). The class given is cell-based. Particulars: continuous treatment 90 min, range of doses; ratio 485/405 nm excitation, emission 535 nm; pH 7.4; n = 6 independent experiments. The procedure:
Receptor internalization was assessed in the HEK293 cell line stably transfected with human PTH1R‐pHluorin2‐GFP (GPG‐10 cells).^( ^33 , ^34 ^) Confluent monolayers of cells in black‐walled, 96‐well plates were incubated in HBSS with BSA (0.1% wt/vol) and HEPES buffer (pH 7.4, 10mM). Peptides were added and wells were analyzed by recording fluorescence readouts with excitation at 485 or 405 nm and emission at 535 nm. Data were analyzed as a ratio of fluorescence intensity following excitation at 485/405 nm over the course of 90 min, and the area under the curve (AUC) values for each time course were plotted as a function of ligand concentration.
A complementary approach was used to visualize ligand‐dependent colocalization of PTH1R and β‐arrestin2. For this, β‐arrestin2‐YFP–expressing cells were transiently transduced with a plasmid encoding a dsRed‐tagged version of human PTH1R. […] In that study, multiple ligand concentrations were used and the responses were assessed at the peak response time, which was generally ~5 min after ligand addition.^( ^42 ^) To explore differences in receptor internalization in more detail, we used constructs where the PTH receptor is fused to a pH‐sensitive GFP variant (GFP^pHs) which changes its fluorescent signal in acidic endosomes. […]

The test system of the next assay is human PTH1R. In words: β-arrestin2-YFP clustering in GBR-24 cells. The format is cell-based. Particulars: TMR-labeled ligands 30nM, 15 min, room temperature; β-arrestin2-YFP HEK293 cells (GBR-24) transiently transfected with human PTH1R. The procedure: Recruitment of β‐arrestin was assessed in HEK293 cells stably transfected to express β‐arrestin2‐YFP^( ^36 ^) and glosensor (GBR‐24 cells)^( ^34 ^) and transiently transfected to express the hPTH1R or mDsRed‐hPTH1R in which the monomeric Discosoma sp. red fluorescent protein is inserted in the E2 region of the receptor's extracellular domain. Cells were treated with each PTH1R ligand and imaged by fluorescent microscopy as described above (see 2.4 Internalization). The quantification of colocalizations between β‐arrestin2YFP and TMR‐ligands were performed by ImageJ software (NIH, Bethesda, MD, USA; https://imagej.nih.gov/ij/) using Just Another Colocalization Plugin (JACoP) and indicated as cytofluorograms.
Recruitment of the intracellular scaffolding proteins β‐arrrestin1/2 is a well‐characterized step that occurs following activation and GRK‐dependent phosphorylation in multiple G‐Protein‐Coupled Receptors (GPCRs) signaling systems.^( ^39 ^) β‐arrestin recruitment is traditionally thought to lead to signal termination due to receptor internalization. […] For this, HEK293 cells stably expressing YFP‐tagged β‐arrestin2 (GBR‐24 cells) were transiently transfected with human PTH1R cDNA, then treated with TMR‐labeled PTH ligands at 30nM for 15 min at room temperature. Thereafter, cells were rinsed, fixed, and viewed by epifluorescent microscopy.

For a further assay, the system named is PTH1R. As to conditions: cited from earlier work. The source says:
Recruitment of the intracellular scaffolding proteins β‐arrrestin1/2 is a well‐characterized step that occurs following activation and GRK‐dependent phosphorylation in multiple G‐Protein‐Coupled Receptors (GPCRs) signaling systems.^( ^39 ^) β‐arrestin recruitment is traditionally thought to lead to signal termination due to receptor internalization.

As to `COc1ccc(N2C(=O)N(c3c(C)cccc3Cl)Cc3cnc(Nc4ccc(C5CCN(C)CC5)cc4OC)nc32)nc1` [YKL‐05‐099], the PTH-mimicking action entry in the assay on SIK was “mimic PTH action in cultured osteocytes and in vivo”.

“LNleHQLdWKWIQDARRRAWLHKLIAEIHTAEI.NH2 [PTH (7‐36), N‐truncated LA‐PTH analog used as a negative control]”: the “SIK substrate phosphorylation and gene expression changes” value with HDAC4 S246, HDAC5 S259 is “completely inactive”. Further, the “PTH1R internalization (AUC of GFP^pHs fluorescence ratio)” value in assay [1] is “internalization‐deficient”. Moreover, in the assay with human PTH1R, the β-arrestin2 clustering/recruitment result is recorded as “fails to stimulate β‐arrestin2 recruitment”. The “intracellular signaling or PTH1R internalization” value in the assay on PTH1R is given as “does not induce intracellular signaling or PTH1R internalization”.
